According to ChEMBL document CHEMBL1152433, “Pyrano[3,2-c]quinoline-6-chlorotacrine hybrids as a novel family of acetylcholinesterase- and beta-amyloid-directed anti-Alzheimer compounds” (J Med Chem, 2009):
Active and inactive are the calls of the source. The calls are words filed in the database; no cut-off is given here.

Key:
Acetylcholinesterase [1] = biological target: T1, Acetylcholinesterase (Bos taurus, UniProt P23795); test: Inhibition of bovine AChE by Ellman's method
T1 sequence (P23795 whole entry): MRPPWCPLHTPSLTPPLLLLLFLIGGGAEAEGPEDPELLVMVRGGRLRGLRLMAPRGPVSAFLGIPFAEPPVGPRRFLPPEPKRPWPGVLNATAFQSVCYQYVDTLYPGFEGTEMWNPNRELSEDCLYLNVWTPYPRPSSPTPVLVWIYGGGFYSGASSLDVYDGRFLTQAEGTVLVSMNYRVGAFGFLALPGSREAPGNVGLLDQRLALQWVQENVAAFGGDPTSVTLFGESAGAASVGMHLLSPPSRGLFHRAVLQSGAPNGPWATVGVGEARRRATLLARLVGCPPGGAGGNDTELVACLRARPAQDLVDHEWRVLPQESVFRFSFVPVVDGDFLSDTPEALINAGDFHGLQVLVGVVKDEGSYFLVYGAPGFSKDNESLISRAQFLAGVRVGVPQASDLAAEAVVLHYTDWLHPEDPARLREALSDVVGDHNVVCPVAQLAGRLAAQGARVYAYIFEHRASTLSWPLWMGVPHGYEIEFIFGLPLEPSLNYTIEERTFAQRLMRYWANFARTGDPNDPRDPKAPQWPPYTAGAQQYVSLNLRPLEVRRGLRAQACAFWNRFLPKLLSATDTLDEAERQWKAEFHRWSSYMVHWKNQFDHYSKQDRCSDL

Cholinesterase = Cholinesterase (Homo sapiens, UniProt P06276); test: Inhibition of human serum BChE by Ellman's method
[2] = biological target: Amyloid-beta precursor protein (Homo sapiens) (UniProt P05067); test: Inhibition of self-induced amyloid beta (1-42) aggregation at 50 uM by thioflavin T fluorescence method
Beta-secretase 1 [3] = biological target: T2, Beta-secretase 1 (Homo sapiens, UniProt P56817); test: Inhibition of human recombinant BACE1 at 2.5 uM by fluorimetric assay
Beta-secretase 1 [4] = biological target: T2, Beta-secretase 1; test: Inhibition of human recombinant BACE1 by fluorimetric assay
Acetylcholinesterase [5] = biological target: T3, Acetylcholinesterase (Homo sapiens, UniProt P22303)
Description: Inhibition of AChE in human erythrocytes by Ellman's method

in vitro [6] = details: PAMPA
Description: Membrane permeability dissolved in PBS/EtOH (70:30) mixture by PAMPA-BBB assay

in vitro [7] = details: PAMPA; remark: listed apart in the source
Description: Membrane permeability dissolved in PBS/EtOH (80:20) mixture by PAMPA-BBB assay

Acetylcholinesterase [8] = biological target: T3, Acetylcholinesterase; test: Inhibition of human recombinant AChE by Lineweaver-Burke reciprocal plot analysis

T2 sequence (P56817 whole entry): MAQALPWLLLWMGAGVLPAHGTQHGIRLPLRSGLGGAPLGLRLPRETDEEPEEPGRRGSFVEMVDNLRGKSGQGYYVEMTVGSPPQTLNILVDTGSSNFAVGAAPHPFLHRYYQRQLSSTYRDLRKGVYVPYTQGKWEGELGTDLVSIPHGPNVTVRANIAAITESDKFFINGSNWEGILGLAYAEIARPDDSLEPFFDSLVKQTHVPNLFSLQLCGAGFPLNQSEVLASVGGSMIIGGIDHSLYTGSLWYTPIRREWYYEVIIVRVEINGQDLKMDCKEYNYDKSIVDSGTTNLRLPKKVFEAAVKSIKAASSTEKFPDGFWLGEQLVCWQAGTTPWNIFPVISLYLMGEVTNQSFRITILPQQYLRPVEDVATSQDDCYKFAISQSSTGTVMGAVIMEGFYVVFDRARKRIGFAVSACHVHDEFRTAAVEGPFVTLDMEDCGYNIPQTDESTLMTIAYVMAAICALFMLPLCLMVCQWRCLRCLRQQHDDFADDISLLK
Chain of Amyloid-beta precursor protein (Homo sapiens) (P05067 whole entry): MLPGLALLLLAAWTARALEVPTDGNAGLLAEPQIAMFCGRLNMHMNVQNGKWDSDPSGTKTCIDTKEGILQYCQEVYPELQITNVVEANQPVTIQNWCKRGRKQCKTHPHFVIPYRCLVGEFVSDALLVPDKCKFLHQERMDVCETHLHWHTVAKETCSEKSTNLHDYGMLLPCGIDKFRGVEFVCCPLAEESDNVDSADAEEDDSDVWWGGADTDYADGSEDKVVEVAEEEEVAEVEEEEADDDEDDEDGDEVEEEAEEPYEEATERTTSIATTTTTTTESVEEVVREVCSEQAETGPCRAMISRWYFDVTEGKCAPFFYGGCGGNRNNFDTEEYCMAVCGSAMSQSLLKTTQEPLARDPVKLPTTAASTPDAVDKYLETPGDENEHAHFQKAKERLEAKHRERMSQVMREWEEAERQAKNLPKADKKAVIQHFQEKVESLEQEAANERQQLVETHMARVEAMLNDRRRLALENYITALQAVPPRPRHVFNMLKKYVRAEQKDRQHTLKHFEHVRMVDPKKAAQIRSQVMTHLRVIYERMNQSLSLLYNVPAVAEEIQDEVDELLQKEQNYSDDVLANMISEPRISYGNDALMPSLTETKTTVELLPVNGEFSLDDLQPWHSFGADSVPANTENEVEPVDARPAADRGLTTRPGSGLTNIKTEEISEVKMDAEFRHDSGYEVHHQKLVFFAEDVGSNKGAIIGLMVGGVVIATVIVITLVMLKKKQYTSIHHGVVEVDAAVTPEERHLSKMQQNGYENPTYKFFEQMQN
T3 sequence (P22303 whole entry): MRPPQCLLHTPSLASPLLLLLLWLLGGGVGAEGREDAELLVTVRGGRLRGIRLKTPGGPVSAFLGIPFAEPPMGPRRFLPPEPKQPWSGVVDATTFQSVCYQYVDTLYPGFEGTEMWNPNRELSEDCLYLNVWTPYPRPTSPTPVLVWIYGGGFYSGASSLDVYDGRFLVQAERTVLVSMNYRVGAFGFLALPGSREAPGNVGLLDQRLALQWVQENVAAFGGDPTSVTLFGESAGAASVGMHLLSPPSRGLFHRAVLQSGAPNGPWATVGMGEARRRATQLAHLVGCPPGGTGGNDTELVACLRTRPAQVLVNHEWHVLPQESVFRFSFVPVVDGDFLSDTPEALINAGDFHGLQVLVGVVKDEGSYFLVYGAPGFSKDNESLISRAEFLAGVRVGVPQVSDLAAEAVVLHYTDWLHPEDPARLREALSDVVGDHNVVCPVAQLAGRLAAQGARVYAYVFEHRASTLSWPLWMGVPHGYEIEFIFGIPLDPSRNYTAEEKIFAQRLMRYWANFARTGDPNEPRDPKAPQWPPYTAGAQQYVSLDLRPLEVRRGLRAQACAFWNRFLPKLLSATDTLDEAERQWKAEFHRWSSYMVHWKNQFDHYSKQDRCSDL
Chain of Cholinesterase (P06276 whole entry): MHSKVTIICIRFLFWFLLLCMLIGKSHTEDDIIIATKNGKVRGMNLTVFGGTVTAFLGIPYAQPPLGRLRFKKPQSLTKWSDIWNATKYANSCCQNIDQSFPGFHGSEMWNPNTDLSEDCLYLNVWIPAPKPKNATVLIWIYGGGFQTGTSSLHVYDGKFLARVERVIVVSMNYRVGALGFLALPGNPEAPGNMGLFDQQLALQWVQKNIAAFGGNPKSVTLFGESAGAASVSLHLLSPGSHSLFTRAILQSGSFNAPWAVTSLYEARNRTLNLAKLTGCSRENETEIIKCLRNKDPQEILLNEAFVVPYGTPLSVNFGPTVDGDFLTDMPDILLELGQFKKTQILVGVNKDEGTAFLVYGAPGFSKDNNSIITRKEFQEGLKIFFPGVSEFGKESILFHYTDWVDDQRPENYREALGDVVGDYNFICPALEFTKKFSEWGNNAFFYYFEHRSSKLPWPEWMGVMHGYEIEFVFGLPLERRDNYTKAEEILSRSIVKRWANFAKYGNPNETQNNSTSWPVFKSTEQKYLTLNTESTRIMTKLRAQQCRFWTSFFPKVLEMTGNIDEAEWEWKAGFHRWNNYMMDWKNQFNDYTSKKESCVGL

Row | Compound | IC50 (Acetylcholinesterase [1]) [µM] | IC50 (Cholinesterase) [µM] | inhibition [2] | inhibition (Beta-secretase 1 [3]) | IC50 (Beta-secretase 1 [4]) [µM] | IC50 (Acetylcholinesterase [5]) [µM] | Papp (in vitro [6]) [nm/s] | Papp (in vitro [7]) [nm/s] | Ki (Acetylcholinesterase [8]) [µM]
1 | Cl.Cl.Cl.O=C(CCc1ccc2nc(-c3ccccc3)c3c(c2c1)OCCC3)NCCCCCCCCNc1c2c(nc3cc(Cl)ccc13)CCCC2 | 0.0341 | 1.08 | 47.3% | 77.8% | 1.81 | 0.014 | 101 | – | –
2 | Cl.Cl.Cl.Cl.O=C(NCCCCCCCNc1c2c(nc3cc(Cl)ccc13)CCCC2)c1ccc2nc(-c3ccc(Cl)cc3)c3c(c2c1)OCCC3 | 0.0103 | 1.93 | 28.6% | 14.5% | – | 0.0183 | 177 | – | –
3 | Cl.Cl.Cl.Cl.O=C(NCCCCCCNc1c2c(nc3cc(Cl)ccc13)CCCC2)c1ccc2nc(-c3ccc(Cl)cc3)c3c(c2c1)OCCC3 | 0.0204 | 1.07 | 16.4% | inactive | – | 0.0192 | 149 | – | –
4 | CN(C)CCCN1c2ccccc2Sc2ccc(Cl)cc21 [CHLORPROMAZINE] | – | – | – | – | – | – | 136 | 85 | –
5 | CCOC(=O)c1ccc2nc(-c3ccc(Cl)cc3)c3c(c2c1)OCCC3 | > 10 | > 10 | – | – | – | > 10 | – | – | –
6 | O=C(NCCCCCCCCNc1c2c(nc3cc(Cl)ccc13)CCCC2)c1ccc2nc(-c3ccc(Cl)cc3)c3c(c2c1)OCCC3 | 0.0104 | 0.331 | 21.5% | 18.5% | – | 0.00703 | – | – | 0.00191
7 | Cl.Cl.Cl.O=C(CCc1ccc2nc(-c3ccccc3)c3c(c2c1)OCCC3)NCCCCNc1c2c(nc3cc(Cl)ccc13)CCCC2 | 0.0481 | 0.586 | 45.3% | inactive | – | 0.0166 | – | 151 | –
8 | Cl.Cl.O=C(CCc1ccc2nc(-c3ccccc3)c3c(c2c1)OCCC3)NCCCCCNc1c2c(nc3cc(Cl)ccc13)CCCC2 | 0.0239 | 0.29 | 12.2% | inactive | – | 0.00964 | 106 | – | –
9 | c1ccc2c(NCCCCCCCNc3c4c(nc5ccccc35)CCCC4)c3c(nc2c1)CCCC3 | – | – | – | – | 7.5 | – | – | – | –
10 | COC(=O)CCc1ccc2nc(-c3ccccc3)c3c(c2c1)OCCC3 | > 10 | – | inactive | inactive | – | – | – | – | –
11 | Cl.Cl.Cl.O=C(CCc1ccc2nc(-c3ccccc3)c3c(c2c1)OCCC3)NCCCCCCNc1c2c(nc3cc(Cl)ccc13)CCCC2 | 0.0308 | 0.218 | 30.8% | 19.6% | – | 0.0111 | – | 132 | –
12 | O=C(NCCCCCCCCCCNc1c2c(nc3cc(Cl)ccc13)CCCC2)c1ccc2nc(-c3ccc(Cl)cc3)c3c(c2c1)OCCC3 | 0.0937 | 1.62 | 20.5% | inactive | – | 0.05 | – | – | –
13 | CC[N+](C)(CC)CCC[n+]1c(-c2ccccc2)c2cc(N)ccc2c2ccc(N)cc21 [PROPIDIUM] | 6.29 | – | 89.8% | – | – | – | – | – | –
14 | O=C(NCCCCCCCCCNc1c2c(nc3cc(Cl)ccc13)CCCC2)c1ccc2nc(-c3ccc(Cl)cc3)c3c(c2c1)OCCC3 | 0.024 | 1.39 | – | – | – | 0.0249 | – | – | –
15 | Cl.Cl.Cl.O=C(CCc1ccc2nc(-c3ccccc3)c3c(c2c1)OCCC3)NCCCCCCCNc1c2c(nc3cc(Cl)ccc13)CCCC2 | 0.0299 | 0.234 | 49.1% | 34.4% | – | 0.0144 | 102 | – | –
16 | Cl.Nc1c2c(nc3cc(Cl)ccc13)CCCC2 | – | – | 7.1% | inactive | – | – | – | 198 | –
